Experiment: Superoxide scavenging activity (xanthine oxidase / cytochrome c reduction)
Assay type: biochemical
Text: Method 7: Method for Determination of Superoxide Scavenging Activity. The enzymatic system, which uses xanthine oxidase (a purified enzyme preparation produced by “Sigma”), was used to generate superoxide anions in high yield and in a controlled fashion. The conversion of xanthine to […] by this enzyme generates amounts of superoxide anions and reduction of ferricytochrome c to ferrocytochrome c was used as a sensitive measure of superoxide levels. The measurements of ferrocytochrome c level (550 nm), when tested bioactive compositions were added to the reaction system, allow for determination of their superoxide scavenging activity. The final concentrations per well were for cytochrome c 75 μM, xanthine 425 μm/L, and xanthine oxidase 10 mU/ml.

O=C(/C=C/c1ccc(O)c(O)c1)O[C@H](Cc1ccc(O)c(O)c1)C(=O)O [rosmarinic acid]
ICR50 of positive control: 26.5 µg/mL

From patent US10004777B2, “Bioactive compositions from Theacea plants and processes for their production and use” (ISP Investments Inc., priority 2004, dated 2018)
